Values of other authors as cited in patent US9278101B2, “Ophthalmologic irrigation solutions and method” (Omeros Corporation, priority 2002, dated 2016).

Key:
[1] = test system: alpha-1 receptor subtypes; conditions: three alpha-1 receptor subtypes
[2] = test system: non-adrenoceptor imidazoline binding sites
[3] = in vivo

Row | Compound | affinity for non-adrenoceptor imidazoline binding sites [2] | further results
1 | COc1cc2nc(N3CCN(C(=O)c4ccco4)CC3)nc(N)c2cc1OC [prazosin] |  | affinity for alpha-1 receptor subtypes [1]: high affinity (subnanomolar)
2 | Cc1cc(C(C)(C)C)c(O)c(C)c1CC1=NCCN1 [oxymetazoline] | high affinity (nanomolar) | 
3 | Brc1c(NC2=NCCN2)ccc2nccnc12 [UK14304, 5-bromo-N-(4,5-dihydro-1H-imidazol-2-yl)-6-quinoxalinamine] | high affinity (nanomolar) | 
4 | Clc1cccc(Cl)c1N=C1NCCN1 [clonidine] | high affinity (nanomolar) | 
5 | c1ccc2c(c1)OCC(C1=NCCN1)O2 (stereo not drawn) [idazoxan] | high affinity (nanomolar) | 
6 | tropicamide |  | half-life [3]: 4 to 6 h
